Assay results from ChEMBL document CHEMBL4339199 (ACS Med Chem Lett, 2019).
Active and inactive are the calls of the source. The rule behind the calls is not given here.

What was measured:
[1] = molecular target: T1, Tyrosine-protein kinase JAK3 (Homo sapiens, UniProt P52333); assay: Inhibition of GST-tagged JAK3 (unknown origin) using fluoresceinated peptide as substrate measured after 3 hrs by electrophoresis method
T1 sequence (P52333 whole entry): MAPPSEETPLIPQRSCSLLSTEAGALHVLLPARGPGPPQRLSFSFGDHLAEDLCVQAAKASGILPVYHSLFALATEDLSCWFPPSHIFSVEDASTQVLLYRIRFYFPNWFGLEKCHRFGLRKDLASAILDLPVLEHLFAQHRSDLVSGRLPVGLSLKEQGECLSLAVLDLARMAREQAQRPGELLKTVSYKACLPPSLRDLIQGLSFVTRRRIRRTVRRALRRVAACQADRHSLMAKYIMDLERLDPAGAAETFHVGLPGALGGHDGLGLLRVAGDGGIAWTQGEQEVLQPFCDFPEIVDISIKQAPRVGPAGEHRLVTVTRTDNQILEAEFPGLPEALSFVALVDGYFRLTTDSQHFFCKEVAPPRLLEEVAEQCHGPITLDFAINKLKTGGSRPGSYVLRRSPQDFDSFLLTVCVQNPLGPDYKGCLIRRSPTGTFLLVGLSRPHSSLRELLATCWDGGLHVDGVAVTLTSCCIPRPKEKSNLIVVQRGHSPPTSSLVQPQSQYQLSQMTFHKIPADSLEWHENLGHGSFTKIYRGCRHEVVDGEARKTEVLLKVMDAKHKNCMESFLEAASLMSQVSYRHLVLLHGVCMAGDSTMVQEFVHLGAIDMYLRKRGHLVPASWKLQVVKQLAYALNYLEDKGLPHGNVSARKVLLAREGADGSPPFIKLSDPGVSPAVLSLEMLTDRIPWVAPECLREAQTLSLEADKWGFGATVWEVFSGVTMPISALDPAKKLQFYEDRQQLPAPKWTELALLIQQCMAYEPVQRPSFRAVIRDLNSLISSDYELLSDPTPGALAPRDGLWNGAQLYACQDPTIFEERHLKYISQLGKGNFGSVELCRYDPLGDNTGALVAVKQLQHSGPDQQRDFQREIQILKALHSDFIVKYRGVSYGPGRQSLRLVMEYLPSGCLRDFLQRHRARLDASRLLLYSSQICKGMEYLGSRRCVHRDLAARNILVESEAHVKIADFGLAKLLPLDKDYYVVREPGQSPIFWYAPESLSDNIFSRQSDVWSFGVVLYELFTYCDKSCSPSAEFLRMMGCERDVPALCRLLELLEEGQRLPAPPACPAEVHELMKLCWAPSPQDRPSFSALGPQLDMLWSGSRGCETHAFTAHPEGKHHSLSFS

[2] = molecular target: Tyrosine-protein kinase JAK2 (Homo sapiens, UniProt O60674); assay: Inhibition of GST-tagged JAK2 (unknown origin) using fluoresceinated peptide as substrate measured after 3 hrs by electrophoresis method
[3] = molecular target: Non-receptor tyrosine-protein kinase TYK2 (Homo sapiens, UniProt P29597); assay: Inhibition of […] TYK2 (unknown origin) using fluoresceinated peptide as substrate measured after 3 hrs by electrophoresis method
Blood = assay: Inhibition of IL2-induced IFNgamma production in CD3/CD28 antibody-stimulated human whole blood measured after 18 hrs by ELISA; format: functional, tissue-based
T-cell = assay: Inhibition of IL2-induced human PBMC-derived T cell proliferation preincubated for 60 mins followed by IL-2 stimulation and measured after 3 days by [3H]thymidine incorporation based topcount method; format: functional
[4] = molecular target: Tyrosine-protein kinase JAK1 (Homo sapiens, UniProt P23458); assay: Inhibition of GST-tagged JAK1 (unknown origin) using fluoresceinated peptide as substrate measured after 3 hrs by electrophoresis method
[5] = Lipophilicity, log P of the compound; format: physicochemical; settings: octanol/water
[6] = Aqueous solubility of the compound; format: physicochemical; settings: buffer
[7] = Stability in mouse microsomes assessed as parent compound remaining measured after 10 mins; format: ADME, Microsome; settings: read-out: Stability
[8] = Octanol-water partition coefficient, log P of the compound at pH 6.5 by HPLC analysis; format: physicochemical
Mus musculus [9] = assay: Antiinflammatory activity in DBA1 mouse model of collagen-induced inflammation assessed as reduction in rheumatoid arthritis score in paw administered daily via oral gavage for 21 days starting from 21 days post-immunization and measured 3 times every week following booster immunization; format: functional, organism-based
[10] = AUC in mouse at 40 mg/kg, po; format: ADME, organism-based; settings: in vivo
[11] = Prodrug conversion in DBA1 mouse assessed as 4-((2R,3R)-l,3-Dihydroxybutan-2-ylamino)-6-phenylpyrrolo [ 1,2-b]pyridazine-3 carboxamide formation at 140 mg/kg, po administered via gavage; format: ADME, organism-based; settings: in vivo
[12] = Solubility of the compound in water; format: physicochemical; settings: buffer
[13] = AUC in mouse at 10 mg/kg, po; format: ADME, organism-based; settings: in vivo
Mus musculus [14] = assay: Antiinflammatory activity in DBA1 mouse model of collagen-induced inflammation assessed as reduction in rheumatoid arthritis score in paw at 6.6 mg/kg administered daily via oral gavage for 21 days starting from 21 days post-immunization and measured 3 times every week following booster immunization; format: functional, organism-based
[15] = Solubility of the compound in 5%EtOH/5%TPGS/90%PEG300 formulation; format: physicochemical
[16] = Time at which plasma concentration stays above in vitro IC50 for inhibition of IL2-induced IFNgamma production in CD3/CD28 antibody-stimulated human whole blood in mouse at 10 mg/kg, po; format: organism-based; settings: in vivo
[17] = Cmax in mouse at 50 mg/kg, po administered as microsuspension formulation; format: ADME, organism-based; parameters: dose 50 mg/kg, route oral; settings: in vivo
[18] = Solubility of the compound in phosphate buffer using crystalline compound; format: physicochemical
[19] = Permeability of the compound by PAMPA; format: ADME
[20] = Solubility of the compound in water using amorphous compound; format: physicochemical; settings: buffer
[21] = Stability in rat liver microsomes; format: ADME, Microsome
[22] = Stability in human liver microsomes; format: ADME, Microsome
[23] = Stability in mouse liver microsomes; format: ADME, Microsome
[24] = Cmax in mouse at 10 mg/kg, po; format: ADME, organism-based; parameters: dose 10 mg/kg, route oral; settings: in vivo

Chain of Non-receptor tyrosine-protein kinase TYK2 (P29597 whole entry): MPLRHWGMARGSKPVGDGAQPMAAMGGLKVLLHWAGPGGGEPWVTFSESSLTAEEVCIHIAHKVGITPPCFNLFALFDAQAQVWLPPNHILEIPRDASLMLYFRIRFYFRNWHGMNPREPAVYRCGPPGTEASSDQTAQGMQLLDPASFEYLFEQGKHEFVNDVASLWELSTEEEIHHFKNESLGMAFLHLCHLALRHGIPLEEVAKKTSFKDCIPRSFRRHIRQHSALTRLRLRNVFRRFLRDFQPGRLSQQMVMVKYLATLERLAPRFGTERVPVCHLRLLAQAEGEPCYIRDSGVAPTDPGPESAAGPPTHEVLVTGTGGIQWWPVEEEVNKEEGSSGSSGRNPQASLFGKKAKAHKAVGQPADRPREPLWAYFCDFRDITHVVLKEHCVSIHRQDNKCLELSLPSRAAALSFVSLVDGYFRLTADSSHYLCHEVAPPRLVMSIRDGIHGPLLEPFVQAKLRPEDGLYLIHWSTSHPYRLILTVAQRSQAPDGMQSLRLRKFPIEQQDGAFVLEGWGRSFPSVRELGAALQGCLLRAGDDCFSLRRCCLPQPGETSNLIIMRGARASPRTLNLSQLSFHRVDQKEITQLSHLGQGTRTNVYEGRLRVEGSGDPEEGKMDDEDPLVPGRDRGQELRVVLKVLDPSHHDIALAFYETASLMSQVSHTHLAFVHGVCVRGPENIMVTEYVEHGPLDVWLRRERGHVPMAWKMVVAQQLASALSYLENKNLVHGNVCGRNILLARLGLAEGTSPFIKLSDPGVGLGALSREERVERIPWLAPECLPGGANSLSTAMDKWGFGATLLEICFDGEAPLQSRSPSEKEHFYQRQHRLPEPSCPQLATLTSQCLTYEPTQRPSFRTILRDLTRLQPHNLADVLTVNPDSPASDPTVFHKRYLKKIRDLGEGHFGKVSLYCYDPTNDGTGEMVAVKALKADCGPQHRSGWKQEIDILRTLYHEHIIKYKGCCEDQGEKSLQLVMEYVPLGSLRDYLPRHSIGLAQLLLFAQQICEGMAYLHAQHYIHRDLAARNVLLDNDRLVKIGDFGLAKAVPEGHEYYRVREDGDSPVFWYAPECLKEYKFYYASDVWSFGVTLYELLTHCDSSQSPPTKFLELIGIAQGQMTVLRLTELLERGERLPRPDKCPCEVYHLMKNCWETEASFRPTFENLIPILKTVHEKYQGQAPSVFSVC
Chain of Tyrosine-protein kinase JAK2 (O60674 whole entry): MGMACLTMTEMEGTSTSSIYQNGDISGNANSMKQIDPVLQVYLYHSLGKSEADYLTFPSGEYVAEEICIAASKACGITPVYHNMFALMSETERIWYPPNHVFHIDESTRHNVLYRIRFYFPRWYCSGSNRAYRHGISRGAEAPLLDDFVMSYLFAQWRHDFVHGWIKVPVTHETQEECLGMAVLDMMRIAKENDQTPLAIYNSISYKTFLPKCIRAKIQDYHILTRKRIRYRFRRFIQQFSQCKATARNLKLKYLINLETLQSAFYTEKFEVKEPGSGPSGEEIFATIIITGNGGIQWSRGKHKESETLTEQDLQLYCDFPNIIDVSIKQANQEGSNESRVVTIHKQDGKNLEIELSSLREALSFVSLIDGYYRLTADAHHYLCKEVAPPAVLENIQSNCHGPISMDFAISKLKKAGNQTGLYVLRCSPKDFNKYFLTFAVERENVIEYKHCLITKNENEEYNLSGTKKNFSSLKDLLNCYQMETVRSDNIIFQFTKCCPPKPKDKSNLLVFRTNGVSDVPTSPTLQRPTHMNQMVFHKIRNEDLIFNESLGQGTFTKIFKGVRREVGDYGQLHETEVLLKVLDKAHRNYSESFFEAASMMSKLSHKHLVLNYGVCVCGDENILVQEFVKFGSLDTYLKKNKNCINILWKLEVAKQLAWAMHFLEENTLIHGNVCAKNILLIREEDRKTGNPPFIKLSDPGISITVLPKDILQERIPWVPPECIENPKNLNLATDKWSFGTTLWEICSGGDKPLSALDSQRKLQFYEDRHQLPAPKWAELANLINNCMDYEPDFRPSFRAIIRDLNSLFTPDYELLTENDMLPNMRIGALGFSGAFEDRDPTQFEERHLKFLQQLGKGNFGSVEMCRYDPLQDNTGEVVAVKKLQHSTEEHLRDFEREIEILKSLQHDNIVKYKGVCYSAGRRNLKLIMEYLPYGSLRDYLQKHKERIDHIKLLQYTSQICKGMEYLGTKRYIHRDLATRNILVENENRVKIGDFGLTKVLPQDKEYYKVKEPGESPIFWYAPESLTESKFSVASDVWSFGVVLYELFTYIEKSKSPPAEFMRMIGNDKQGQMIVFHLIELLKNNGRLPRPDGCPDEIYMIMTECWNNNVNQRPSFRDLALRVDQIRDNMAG
Chain of Tyrosine-protein kinase JAK1 (P23458 whole entry): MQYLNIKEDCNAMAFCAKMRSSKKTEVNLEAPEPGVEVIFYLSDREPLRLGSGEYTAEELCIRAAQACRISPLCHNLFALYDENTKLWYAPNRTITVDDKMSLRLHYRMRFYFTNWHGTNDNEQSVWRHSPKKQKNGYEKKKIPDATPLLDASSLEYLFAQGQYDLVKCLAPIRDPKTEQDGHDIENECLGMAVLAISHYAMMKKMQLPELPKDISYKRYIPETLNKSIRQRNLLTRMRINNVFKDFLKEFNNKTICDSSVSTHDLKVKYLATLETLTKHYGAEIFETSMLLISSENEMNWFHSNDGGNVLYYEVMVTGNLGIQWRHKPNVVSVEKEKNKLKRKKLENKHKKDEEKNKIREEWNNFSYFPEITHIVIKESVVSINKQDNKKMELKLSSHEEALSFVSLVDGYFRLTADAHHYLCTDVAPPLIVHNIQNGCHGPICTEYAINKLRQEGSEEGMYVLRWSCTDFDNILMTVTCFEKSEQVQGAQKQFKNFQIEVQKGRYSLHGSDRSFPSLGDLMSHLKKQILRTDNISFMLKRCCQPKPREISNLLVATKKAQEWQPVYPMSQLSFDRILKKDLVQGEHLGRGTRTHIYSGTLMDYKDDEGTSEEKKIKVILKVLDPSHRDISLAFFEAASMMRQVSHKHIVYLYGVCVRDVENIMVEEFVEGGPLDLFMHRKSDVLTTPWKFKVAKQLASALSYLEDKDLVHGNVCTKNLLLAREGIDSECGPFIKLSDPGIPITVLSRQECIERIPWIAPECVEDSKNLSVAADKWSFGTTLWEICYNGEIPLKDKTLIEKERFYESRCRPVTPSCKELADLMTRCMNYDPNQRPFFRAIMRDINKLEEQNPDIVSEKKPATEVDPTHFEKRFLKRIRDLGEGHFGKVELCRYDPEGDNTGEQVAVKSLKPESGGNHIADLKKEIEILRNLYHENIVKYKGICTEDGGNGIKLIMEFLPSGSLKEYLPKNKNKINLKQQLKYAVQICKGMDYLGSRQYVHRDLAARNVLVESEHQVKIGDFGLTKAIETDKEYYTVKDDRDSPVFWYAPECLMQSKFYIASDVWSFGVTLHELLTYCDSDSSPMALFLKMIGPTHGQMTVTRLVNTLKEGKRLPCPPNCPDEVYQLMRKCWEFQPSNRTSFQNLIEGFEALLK

SMILES: COc1ccc(-c2cc3c(N[C@H](CO)CC(C)C)c(C(N)=O)cnn3c2)cn1
- IC50 [1]: 3 nM
- IC50 [2]: 30 nM
- IC50 [3]: 180 nM
- IC50 (Blood): 3900 nM
- IC50 (T-cell; Homo sapiens, T-cell): 190 nM
- IC50 [4]: 23 nM

SMILES: CC(C)CCNc1c(C(N)=O)cnn2cc(-c3ccccc3)cc12
- logP [5]: 5.08
- IC50 [1]: 11 nM
- IC50 [2]: 220 nM
- solubility [6]: < 1 µg/mL
- remaining at 10 min [7]: < 50%
- IC50 [3]: 160 nM
- IC50 (Blood): > 4000 nM
- IC50 [4]: 110 nM

SMILES: CC(C)Nc1c(C(N)=O)cnn2cc(-c3ccccc3)cc12
- IC50 [1]: 15 nM
- IC50 [2]: 190 nM
- solubility [6]: < 1 µg/mL
- remaining at 10 min [7]: < 50%
- IC50 [3]: 150 nM
- IC50 (Blood): > 4000 nM
- IC50 [4]: 40 nM

SMILES: COc1ccc(-c2cc3c(N[C@H](CO)CC4CC4)c(C(N)=O)cnn3c2)cn1
- IC50 [1]: 1 nM
- IC50 [2]: 25 nM
- IC50 [3]: 120 nM
- IC50 (Blood): > 4000 nM
- IC50 (T-cell; Homo sapiens, T-cell): 290 nM
- IC50 [4]: 32 nM

SMILES: COc1ccc(-c2cc3c(NC(CO)[C@H](O)C4CC4)c(C(N)=O)cnn3c2)cn1 (stereo in doubt; 18)
- IC50 [1]: 100 nM
- IC50 [2]: 1400 nM
- IC50 [3]: 2000 nM
- IC50 (T-cell; t-cell): 4800 nM
- IC50 [4]: 620 nM

SMILES: COc1ccc(-c2cc3c(NC(CO)[C@H](O)C4CC4)c(C(N)=O)cnn3c2)cn1 (stereo in doubt; 19)
- IC50 [1]: 2 nM
- IC50 [2]: 45 nM
- IC50 [3]: 130 nM
- IC50 (Blood): 730 nM
- IC50 (T-cell; t-cell): 500 nM
- IC50 [4]: 21 nM

SMILES: NC(=O)c1cnn2cc(-c3ccccc3)cc2c1NC1CCCC1
- IC50 [1]: 5 nM
- IC50 [2]: 50 nM
- solubility [6]: < 1 µg/mL
- remaining at 10 min [7]: < 50%
- IC50 [3]: 20 nM
- IC50 (Blood): > 4000 nM
- IC50 [4]: 13 nM

SMILES: COc1ccc(-c2cc3c(NC(CO)CO)c(C(N)=O)cnn3c2)cn1
- IC50 [1]: 38 nM
- IC50 [3]: 330 nM
- IC50 (T-cell; Homo sapiens, T-cell): 11000 nM
- IC50 [4]: 200 nM

SMILES: COc1ccc(-c2cc3c(N[C@H](CO)[C@@H](C)O)c(C(N)=O)cnn3c2)cn1
- IC50 [1]: 2 nM
- IC50 [2]: 57 nM
- IC50 [3]: 27 nM
- logD [8]: 2.2
- IC50 (T-cell; Homo sapiens, T-cell): 370 nM

SMILES: C[C@H](O)[C@@H](CO)Nc1c(C(N)=O)cnn2cc(-c3ccccc3)cc12
- IC50 [1]: 13 nM
- IC50 [2]: 370 nM
- IC50 [3]: 210 nM
- IC50 (T-cell; Homo sapiens, T-cell): 870 nM
- IC50 [4]: 38 nM

SMILES: CC(C)CNc1c(C(N)=O)cnn2cc(-c3ccccc3)cc12
- logP [5]: 3.94
- IC50 [1]: 4 nM
- IC50 [2]: 160 nM
- solubility [6]: < 1 µg/mL
- remaining at 10 min [7]: < 50%
- IC50 [3]: 63 nM
- IC50 (Blood): > 4000 nM
- IC50 [4]: 30 nM

SMILES: C[C@@H](O)[C@@H](COP(=O)([O-])[O-])Nc1c(C(N)=O)cnn2cc(-c3ccccc3)cc12.[Na+].[Na+]
- Activity (Mus musculus [9]): Dose-dependent effect
- AUC [10]: 6 µM·h
- Drug metabolism [11]: Metabolite_Detected
- solubility [12]: Soluble
- AUC [13]: 1 µM·h

SMILES: C[C@@H]1CCN(C(=O)CC#N)C[C@@H]1N(C)c1ncnc2[nH]ccc12
- Activity (Mus musculus [14]): Active

SMILES: C[C@@H](O)[C@H](CO)Nc1c(C(N)=O)cnn2cc(-c3ccccc3)cc12
- IC50 [1]: 180 nM
- IC50 [2]: 1700 nM
- IC50 [3]: 510 nM
- IC50 (T-cell; Homo sapiens, T-cell): 1800 nM
- IC50 [4]: 110 nM

SMILES: CC(C)(C)CNc1c(C(N)=O)cnn2cc(-c3ccccc3)cc12
- IC50 [1]: 8 nM
- IC50 [2]: 110 nM
- solubility [6]: < 1 µg/mL
- remaining at 10 min [7]: < 50%
- IC50 [3]: 70 nM
- IC50 (Blood): > 4000 nM
- IC50 [4]: 33 nM

SMILES: C[C@@H](O)[C@@H](CO)Nc1c(C(N)=O)cnn2cc(-c3ccccc3)cc12
- solubility [15]: Insoluble
- Time [16]: 3 h
- Cmax [17]: 100 nM
- solubility [18]: Insoluble
- permeability [19]: Permeable
- IC50 [2]: 70 nM
- solubility [20]: Insoluble
- IC50 [3]: 34 nM
- Stability [21]: Stable
- logD [8]: 2.42
- IC50 (Blood): 500 nM
- Stability [22]: Stable
- Stability [23]: Stable
- IC50 (T-cell; Homo sapiens, T-cell): 70 nM
- Cmax [24]: > 3000 nM
- IC50 [4]: 5 nM

SMILES: C[C@H](O)[C@H](CO)Nc1c(C(N)=O)cnn2cc(-c3ccccc3)cc12
- IC50 [1]: 160 nM
- IC50 [2]: 1800 nM
- IC50 [3]: 1300 nM
- IC50 (T-cell; Homo sapiens, T-cell): 2000 nM
- IC50 [4]: 180 nM
